According to ChEMBL document CHEMBL1150275, “Pharmacological and pharmacokinetic characterization of 2-piperazine-alpha-isopropyl benzylamine derivatives as melanocortin-4 receptor antagonists” (Bioorg Med Chem, 2008):

Experiments:
[1] = Ratio of Cmax in brain to plasma in rat at 10 mg/kg, po after 4 hrs; format: ADME, organism-based; parameters: dose 10 mg/kg, route oral; settings: brain and plasma
Brain = assay: AUC in rat brain at 10 mg/kg, po; format: ADME, organism-based; parameters: dose 10 mg/kg, route oral; settings: in vivo
[2] = Cmax in rat brain at 10 mg/kg, po; format: ADME, organism-based; parameters: dose 10 mg/kg, route oral
[3] = AUC in rat at 10 mg/kg, po; format: ADME, organism-based; parameters: dose 10 mg/kg, route oral; settings: plasma
[4] = Oral bioavailability in mouse at 10 mg/kg; format: ADME, organism-based; settings: in vivo
[5] = AUC in mouse at 10 mg/kg, po; format: ADME, organism-based; parameters: dose 10 mg/kg, route oral; settings: plasma
[6] = Volume of distribution in rat at 5 mg/kg, iv and 10 mg/kg, po; format: ADME, organism-based; settings: in vivo
[7] = Tmax in mouse at 5 mg/kg, iv and 10 mg/kg, po; format: ADME, organism-based; settings: in vivo
[8] = Cmax in monkey at 5 mg/kg, iv and 10 mg/kg, po; format: ADME, organism-based, Macaca mulatta; settings: rhesus monkey, in vivo
[9] = AUC in dog at 10 mg/kg, po; format: ADME, organism-based, Canis lupus familiaris; parameters: dose 10 mg/kg, route oral; settings: plasma
[10] = Volume of distribution in monkey at 5 mg/kg, iv and 10 mg/kg, po; format: ADME, organism-based, Macaca mulatta; settings: rhesus monkey, in vivo
[11] = Drug level in mouse brain at 5 mg/kg, iv after 4 hrs; format: ADME, organism-based; parameters: dose 5 mg/kg, route intravenous; settings: read-out: Drug uptake
[12] = Oral bioavailability in dog at 10 mg/kg; format: ADME, organism-based, Canis lupus familiaris; settings: in vivo
[13] = Drug level in rat brain at 10 mg/kg, po after 1 hr; format: ADME, organism-based; parameters: dose 10 mg/kg, route oral; settings: read-out: Drug uptake
[14] = Cmax in rat at 5 mg/kg, iv and 10 mg/kg, po; format: ADME, organism-based; settings: in vivo
[15] = Tmax in monkey at 5 mg/kg, iv and 10 mg/kg, po; format: ADME, organism-based, Macaca mulatta; settings: rhesus monkey, in vivo
[16] = Tmax in rat at 5 mg/kg, iv and 10 mg/kg, po; format: ADME, organism-based; settings: in vivo
[17] = Volume of distribution in mouse at 5 mg/kg, iv and 10 mg/kg, po; format: ADME, organism-based; settings: in vivo
Caco-2 = assay: Apparent permeability across human Caco-2 cells; format: ADME, cell-based
[18] = Volume of distribution in dog at 5 mg/kg, iv and 10 mg/kg, po; format: ADME, organism-based, Canis lupus familiaris; settings: in vivo
[19] = Ratio of AUC in brain to plasma in rat at 10 mg/kg, po; format: ADME, organism-based; parameters: dose 10 mg/kg, route oral; settings: brain and plasma
[20] = Ratio of Cmax in brain to plasma in rat at 10 mg/kg, po; format: ADME, organism-based; parameters: dose 10 mg/kg, route oral; settings: brain and plasma
[21] = Drug level in rat brain at 10 mg/kg, po after 4 hrs; format: ADME, organism-based; parameters: dose 10 mg/kg, route oral; settings: read-out: Drug uptake
[22] = Tmax in dog at 5 mg/kg, iv and 10 mg/kg, po; format: ADME, organism-based, Canis lupus familiaris; settings: in vivo
[23] = Cmax in dog at 5 mg/kg, iv and 10 mg/kg, po; format: ADME, organism-based, Canis lupus familiaris; settings: in vivo
[24] = Oral bioavailability in rat at 10 mg/kg; format: ADME, organism-based; settings: in vivo
[25] = Oral bioavailability in monkey at 10 mg/kg; format: ADME, organism-based, Macaca mulatta; settings: rhesus monkey, in vivo
[26] = Ratio of drug level in brain to plasma in mouse at 5 mg/kg, iv after 1 hr; format: ADME, organism-based; parameters: dose 5 mg/kg, route intravenous
[27] = Cmax in mouse at 5 mg/kg, iv and 10 mg/kg, po; format: ADME, organism-based; settings: in vivo
[28] = Drug level in mouse brain at 5 mg/kg, iv after 1 hr; format: ADME, organism-based; parameters: dose 5 mg/kg, route intravenous; settings: read-out: Drug uptake
[29] = Ratio of Cmax in brain to plasma in rat at 10 mg/kg, po after 1 hr; format: ADME, organism-based; parameters: dose 10 mg/kg, route oral; settings: brain and plasma
[30] = AUC in monkey at 10 mg/kg, po; format: ADME, organism-based, Macaca mulatta; parameters: dose 10 mg/kg, route oral; settings: rhesus monkey, plasma
[31] = Tmax in rat brain at 10 mg/kg, po; format: ADME, organism-based; parameters: dose 10 mg/kg, route oral
physchem = settings: buffer, pH 7.4
[32] = Ratio of drug level in brain to plasma in mouse at 5 mg/kg, iv after 4 hrs; format: ADME, organism-based; parameters: dose 5 mg/kg, route intravenous

Kp at 4 h [1]: 0.2
AUC (Brain): 618 ng·h/g
Cmax [2]: 52 ng/g
AUC [3]: 1290 ng·h/mL
bioavailability [4]: 42%
AUC [5]: 2690 ng·h/mL
Vd [6]: 7.7 L/kg
Tmax [7]: 0.5 h
Cmax [8]: 200 ng/mL
AUC [9]: 3850 ng·h/mL
Vd [10]: 5.6 L/kg
concentration at 4 h [11]: 175 ng/g
bioavailability [12]: 37%
concentration at 1 h [13]: 6.3 ng/g
Cmax [14]: 195 ng/mL
Tmax [15]: 6.7 h
Tmax [16]: 6 h
Vd [17]: 5.2 L/kg
Papp (Caco-2): 10 ×10⁻⁶ cm/s
Vd [18]: 8.7 L/kg
Kp [19]: 0.48
Kp [20]: 0.27
concentration at 4 h [21]: 38 ng/g
Tmax [22]: 4 h
Cmax [23]: 250 ng/mL
bioavailability [24]: 31%
bioavailability [25]: 21%
Kp at 1 h [26]: 0.6
Cmax [27]: 308 ng/mL
concentration at 1 h [28]: 322 ng/g
Kp at 1 h [29]: 0.05
AUC [30]: 2650 ng·h/mL
Tmax [31]: 6 h
logD (physchem): 2.4
Kp at 4 h [32]: 0.8
Compound: CC(C)[C@H](NC(=O)CCN(C)C)c1cccc(F)c1N1CCN(C(=O)[C@H](C)Cc2ccc(Cl)cc2)CC1
